Literature values, collected in patent US20220354953A1, “PHOTODYNAMIC THERAPY COMPOSITIONS AND METHODS OF TREATMENT THEREIN” (Pinnacle Biologics, Inc., priority 2021, published 2022).

time stable when reconstituted with saline: 24 h
Substance: porfimer sodium
